# Experimental data taken from the supplement of paper PMC10307832.
# Legend:
# Assay in all cases: relative viability (nuclei count vs DMSO), 5 days (fraction); higher = more cells survive
# Vorinostat + Decitabine = compound: O=C(CCCCCCC(=O)Nc1ccccc1)NO [Vorinostat] + Nc1ncn([C@H]2C[C@H](O)[C@@H](CO)O2)c(=O)n1 [Decitabine] (partner 2 µM)
# Procedure, shortened: (§1)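 After 5 days of treatment, lung cancer cells in 1536-well plates were fixed and stained in a single step (final 0.05% Triton X-100, 1% formaldehyde, 1 ug/ml Hoechst) and their nuclei counted on 4× images. Treatment had been applied by pin tool the day after seeding as one drug alone or as a fixed anchor-drug dose with five library-drug doses (not always all listed) in √10 steps. Relative viability is the nuclei count of treated wells divided by that of vehicle wells, and values are medians of duplicate plates.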
# Vorinostat + Lapatinib = compound: O=C(CCCCCCC(=O)Nc1ccccc1)NO [Vorinostat] + CS(=O)(=O)CCNCc1ccc(-c2ccc3ncnc(Nc4ccc(OCc5cccc(F)c5)c(Cl)c4)c3c2)o1 [Lapatinib] (partner 2 µM)
# Procedure, shortened: as §1
# Vorinostat + Alpelisib = compound: O=C(CCCCCCC(=O)Nc1ccccc1)NO [Vorinostat] + Cc1nc(NC(=O)N2CCC[C@H]2C(N)=O)sc1-c1ccnc(C(C)(C)C(F)(F)F)c1 [Alpelisib] (partner 2 µM)
# Procedure, shortened: as §1
# Vorinostat + Olaparib = compound: O=C(CCCCCCC(=O)Nc1ccccc1)NO [Vorinostat] + O=C(c1cc(Cc2n[nH]c(=O)c3ccccc23)ccc1F)N1CCN(C(=O)C2CC2)CC1 [Olaparib] (partner 8 µM)
# Procedure, shortened: as §1
# Vorinostat + Dasatinib = compound: O=C(CCCCCCC(=O)Nc1ccccc1)NO [Vorinostat] + Cc1nc(Nc2ncc(C(=O)Nc3c(C)cccc3Cl)s2)cc(N2CCN(CCO)CC2)n1 [Dasatinib] (partner 0.075 µM)
# Procedure, shortened: as §1
Cell Line,relative viability (Vorinostat + Decitabine; first compound 0.253 µM),relative viability (Vorinostat + Decitabine; first compound 0.8 µM),relative viability (Vorinostat + Decitabine; first compound 2.53 µM),relative viability (Vorinostat + Decitabine; first compound 8 µM),relative viability (Vorinostat + Lapatinib; first compound 0.253 µM),relative viability (Vorinostat + Lapatinib; first compound 0.8 µM),relative viability (Vorinostat + Lapatinib; first compound 2.53 µM),relative viability (Vorinostat + Lapatinib; first compound 8 µM),relative viability (Vorinostat + Alpelisib; first compound 0.253 µM),relative viability (Vorinostat + Alpelisib; first compound 0.8 µM),relative viability (Vorinostat + Alpelisib; first compound 2.53 µM),relative viability (Vorinostat + Alpelisib; first compound 8 µM),relative viability (Vorinostat + Olaparib; first compound 0.253 µM),relative viability (Vorinostat + Olaparib; first compound 0.8 µM),relative viability (Vorinostat + Olaparib; first compound 2.53 µM),relative viability (Vorinostat + Olaparib; first compound 8 µM),relative viability (Vorinostat + Dasatinib; first compound 0.253 µM),relative viability (Vorinostat + Dasatinib; first compound 0.8 µM),relative viability (Vorinostat + Dasatinib; first compound 2.53 µM),relative viability (Vorinostat + Dasatinib; first compound 8 µM)
HCC-827,0.344,0.343,0.274,0.213,0.219,0.204,0.155,0.161,1.08,1.04,0.634,0.197,0.776,0.632,0.344,0.15,0.299,0.334,0.382,0.314
HOP-62,0.17,0.209,0.169,0.0871,1.25,0.572,0.516,0.0547,1.25,0.947,0.49,0.0804,0.468,0.35,0.16,0.0785,0.888,0.501,0.225,0.0813
IA-LM,,,,,0.765,0.636,0.247,0.073,0.769,0.512,0.224,0.0622,0.911,0.701,0.405,0.0749,,,,
LC-2-ad,0.839,0.69,0.469,0.227,0.924,0.67,0.253,0.0672,0.816,0.644,0.0538,0.0781,0.706,0.541,0.267,0.19,0.585,0.235,0.127,0.124
LCLC-97TM1,0.236,0.264,0.129,0.0801,,0.784,1.49,0.115,,0.26,0.158,0.114,0.455,0.429,0.19,0.0482,0.914,0.68,0.365,0.226
LCLC-103H,0.715,0.766,0.329,0.363,,,,,1.23,0.97,0.58,0.184,0.844,0.737,0.413,0.247,0.504,0.533,0.339,0.134
LK-2,0.267,0.201,0.089,0.064,1.19,0.673,0.209,0.108,1.07,0.847,0.234,0.125,0.705,0.62,0.309,0.0471,0.36,0.188,0.114,0.123
LOU-NH91,0.845,0.854,0.702,0.45,0.843,0.799,0.688,0.346,0.792,0.676,0.452,0.322,0.959,0.832,0.587,0.404,0.661,0.577,0.544,0.361
